Our source for the Kd values is ChEMBL document CHEMBL3991601, “The target landscape of clinical kinase drugs” (Science, 2017).

The target in test [1] is Cyclin-dependent kinase 4 (Homo sapiens, UniProt P11802).
The target in test [2] is Casein kinase I isoform alpha (Homo sapiens, UniProt P48729).
The target of a further test is T1, Ephrin type-B receptor 4 (Homo sapiens, UniProt P54760).
T1 sequence (P54760 whole entry): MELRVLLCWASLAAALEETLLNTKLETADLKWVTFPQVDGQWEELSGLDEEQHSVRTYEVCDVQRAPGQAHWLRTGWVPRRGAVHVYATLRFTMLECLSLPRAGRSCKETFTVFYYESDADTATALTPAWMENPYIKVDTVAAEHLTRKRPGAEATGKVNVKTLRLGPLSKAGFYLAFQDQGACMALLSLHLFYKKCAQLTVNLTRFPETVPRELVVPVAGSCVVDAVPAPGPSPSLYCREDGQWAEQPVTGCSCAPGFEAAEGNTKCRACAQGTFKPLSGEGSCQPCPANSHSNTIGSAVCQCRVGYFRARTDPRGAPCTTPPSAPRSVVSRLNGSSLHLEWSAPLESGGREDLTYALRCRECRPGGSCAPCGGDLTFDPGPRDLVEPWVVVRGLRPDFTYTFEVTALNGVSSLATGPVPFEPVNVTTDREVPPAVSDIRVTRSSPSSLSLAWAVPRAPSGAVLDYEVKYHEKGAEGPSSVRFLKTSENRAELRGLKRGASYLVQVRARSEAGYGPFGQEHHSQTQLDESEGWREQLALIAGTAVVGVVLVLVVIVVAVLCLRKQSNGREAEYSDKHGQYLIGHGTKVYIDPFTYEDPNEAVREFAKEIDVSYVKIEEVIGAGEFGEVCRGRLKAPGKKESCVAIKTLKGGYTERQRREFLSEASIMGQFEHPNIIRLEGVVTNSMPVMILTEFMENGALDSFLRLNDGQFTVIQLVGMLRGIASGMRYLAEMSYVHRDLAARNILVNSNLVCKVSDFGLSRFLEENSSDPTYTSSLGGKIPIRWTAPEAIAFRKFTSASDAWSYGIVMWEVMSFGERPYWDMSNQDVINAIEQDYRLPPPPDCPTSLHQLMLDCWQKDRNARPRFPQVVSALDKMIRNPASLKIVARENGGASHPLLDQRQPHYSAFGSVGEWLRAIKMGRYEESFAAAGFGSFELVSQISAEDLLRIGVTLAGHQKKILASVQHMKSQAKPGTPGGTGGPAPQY

A further test has as its target T2, Heme oxygenase 2 (Homo sapiens, UniProt P30519).
T2 sequence (P30519 whole entry): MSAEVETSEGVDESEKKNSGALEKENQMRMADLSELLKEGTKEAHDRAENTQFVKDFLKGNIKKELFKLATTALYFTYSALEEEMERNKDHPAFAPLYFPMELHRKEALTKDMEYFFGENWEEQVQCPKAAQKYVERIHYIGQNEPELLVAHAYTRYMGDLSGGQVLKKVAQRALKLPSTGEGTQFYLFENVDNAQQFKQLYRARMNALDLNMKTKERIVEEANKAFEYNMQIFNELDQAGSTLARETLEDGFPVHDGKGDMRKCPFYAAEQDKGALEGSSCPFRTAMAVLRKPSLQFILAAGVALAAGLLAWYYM

Test [3] concerns the target T3, MAP/microtubule affinity-regulating kinase 4 (Homo sapiens, UniProt Q96L34).
T3 sequence (Q96L34 whole entry): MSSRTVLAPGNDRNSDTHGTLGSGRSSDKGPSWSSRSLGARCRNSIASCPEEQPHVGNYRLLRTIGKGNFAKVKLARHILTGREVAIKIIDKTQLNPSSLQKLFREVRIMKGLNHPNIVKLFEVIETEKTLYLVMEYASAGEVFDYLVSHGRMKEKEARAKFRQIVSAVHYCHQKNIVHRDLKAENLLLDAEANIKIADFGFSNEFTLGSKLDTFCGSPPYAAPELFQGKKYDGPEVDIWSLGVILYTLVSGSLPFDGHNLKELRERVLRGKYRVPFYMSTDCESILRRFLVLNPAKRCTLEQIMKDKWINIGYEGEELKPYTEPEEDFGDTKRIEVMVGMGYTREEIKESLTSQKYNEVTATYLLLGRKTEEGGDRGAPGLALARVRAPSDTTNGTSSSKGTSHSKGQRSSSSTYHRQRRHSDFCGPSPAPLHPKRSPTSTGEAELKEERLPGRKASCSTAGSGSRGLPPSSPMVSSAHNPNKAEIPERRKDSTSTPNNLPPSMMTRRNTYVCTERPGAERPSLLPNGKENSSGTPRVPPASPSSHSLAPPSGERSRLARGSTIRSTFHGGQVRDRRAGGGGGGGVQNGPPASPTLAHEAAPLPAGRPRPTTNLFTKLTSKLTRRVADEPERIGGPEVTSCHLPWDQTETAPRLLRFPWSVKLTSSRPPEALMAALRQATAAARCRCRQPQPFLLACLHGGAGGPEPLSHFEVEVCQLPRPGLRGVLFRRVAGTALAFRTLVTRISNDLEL

The next test concerns the target Myosin-14 (Homo sapiens, UniProt Q7Z406).
Another test deals with T4, Pyridoxal kinase (Homo sapiens, UniProt O00764).
T4 sequence (O00764 whole entry): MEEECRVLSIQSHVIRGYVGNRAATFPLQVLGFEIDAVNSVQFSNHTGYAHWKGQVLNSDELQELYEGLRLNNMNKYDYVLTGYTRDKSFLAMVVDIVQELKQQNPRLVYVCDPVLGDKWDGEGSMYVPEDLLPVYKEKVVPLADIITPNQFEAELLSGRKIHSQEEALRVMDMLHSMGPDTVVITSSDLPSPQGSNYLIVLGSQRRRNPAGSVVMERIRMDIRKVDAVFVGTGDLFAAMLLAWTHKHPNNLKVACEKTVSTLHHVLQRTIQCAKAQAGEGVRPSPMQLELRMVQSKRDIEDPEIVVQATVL

The target of test [4] is T5, Serine/threonine-protein kinase STK11 (Homo sapiens, UniProt Q15831).
T5 sequence (Q15831 whole entry): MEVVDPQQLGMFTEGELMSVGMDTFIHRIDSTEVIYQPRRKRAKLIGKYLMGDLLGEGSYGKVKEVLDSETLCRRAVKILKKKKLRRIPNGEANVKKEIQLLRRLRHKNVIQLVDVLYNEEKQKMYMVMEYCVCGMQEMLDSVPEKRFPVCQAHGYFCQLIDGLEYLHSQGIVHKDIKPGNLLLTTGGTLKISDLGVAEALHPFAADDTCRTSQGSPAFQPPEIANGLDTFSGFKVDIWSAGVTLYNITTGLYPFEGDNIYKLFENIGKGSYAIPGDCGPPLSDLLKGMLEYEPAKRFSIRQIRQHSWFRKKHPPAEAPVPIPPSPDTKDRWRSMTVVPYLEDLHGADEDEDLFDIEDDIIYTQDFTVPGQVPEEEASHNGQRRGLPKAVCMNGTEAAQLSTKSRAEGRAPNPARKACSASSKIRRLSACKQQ

The source made the active and inactive calls.
Note: in the data inactive means no Kd found up to 30 µM.

Casein kinase I isoform alpha, sequence (P48729 whole entry, canonical isoform): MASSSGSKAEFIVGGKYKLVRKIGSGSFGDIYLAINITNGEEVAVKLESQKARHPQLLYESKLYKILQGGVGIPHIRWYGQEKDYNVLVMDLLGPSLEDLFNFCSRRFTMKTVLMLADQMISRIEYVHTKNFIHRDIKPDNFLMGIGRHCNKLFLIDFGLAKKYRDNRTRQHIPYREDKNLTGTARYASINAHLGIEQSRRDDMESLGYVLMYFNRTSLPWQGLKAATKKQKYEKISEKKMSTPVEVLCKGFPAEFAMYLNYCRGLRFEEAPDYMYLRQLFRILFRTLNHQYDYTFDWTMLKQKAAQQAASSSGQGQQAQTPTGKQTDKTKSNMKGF
Myosin-14, sequence (Q7Z406 whole entry): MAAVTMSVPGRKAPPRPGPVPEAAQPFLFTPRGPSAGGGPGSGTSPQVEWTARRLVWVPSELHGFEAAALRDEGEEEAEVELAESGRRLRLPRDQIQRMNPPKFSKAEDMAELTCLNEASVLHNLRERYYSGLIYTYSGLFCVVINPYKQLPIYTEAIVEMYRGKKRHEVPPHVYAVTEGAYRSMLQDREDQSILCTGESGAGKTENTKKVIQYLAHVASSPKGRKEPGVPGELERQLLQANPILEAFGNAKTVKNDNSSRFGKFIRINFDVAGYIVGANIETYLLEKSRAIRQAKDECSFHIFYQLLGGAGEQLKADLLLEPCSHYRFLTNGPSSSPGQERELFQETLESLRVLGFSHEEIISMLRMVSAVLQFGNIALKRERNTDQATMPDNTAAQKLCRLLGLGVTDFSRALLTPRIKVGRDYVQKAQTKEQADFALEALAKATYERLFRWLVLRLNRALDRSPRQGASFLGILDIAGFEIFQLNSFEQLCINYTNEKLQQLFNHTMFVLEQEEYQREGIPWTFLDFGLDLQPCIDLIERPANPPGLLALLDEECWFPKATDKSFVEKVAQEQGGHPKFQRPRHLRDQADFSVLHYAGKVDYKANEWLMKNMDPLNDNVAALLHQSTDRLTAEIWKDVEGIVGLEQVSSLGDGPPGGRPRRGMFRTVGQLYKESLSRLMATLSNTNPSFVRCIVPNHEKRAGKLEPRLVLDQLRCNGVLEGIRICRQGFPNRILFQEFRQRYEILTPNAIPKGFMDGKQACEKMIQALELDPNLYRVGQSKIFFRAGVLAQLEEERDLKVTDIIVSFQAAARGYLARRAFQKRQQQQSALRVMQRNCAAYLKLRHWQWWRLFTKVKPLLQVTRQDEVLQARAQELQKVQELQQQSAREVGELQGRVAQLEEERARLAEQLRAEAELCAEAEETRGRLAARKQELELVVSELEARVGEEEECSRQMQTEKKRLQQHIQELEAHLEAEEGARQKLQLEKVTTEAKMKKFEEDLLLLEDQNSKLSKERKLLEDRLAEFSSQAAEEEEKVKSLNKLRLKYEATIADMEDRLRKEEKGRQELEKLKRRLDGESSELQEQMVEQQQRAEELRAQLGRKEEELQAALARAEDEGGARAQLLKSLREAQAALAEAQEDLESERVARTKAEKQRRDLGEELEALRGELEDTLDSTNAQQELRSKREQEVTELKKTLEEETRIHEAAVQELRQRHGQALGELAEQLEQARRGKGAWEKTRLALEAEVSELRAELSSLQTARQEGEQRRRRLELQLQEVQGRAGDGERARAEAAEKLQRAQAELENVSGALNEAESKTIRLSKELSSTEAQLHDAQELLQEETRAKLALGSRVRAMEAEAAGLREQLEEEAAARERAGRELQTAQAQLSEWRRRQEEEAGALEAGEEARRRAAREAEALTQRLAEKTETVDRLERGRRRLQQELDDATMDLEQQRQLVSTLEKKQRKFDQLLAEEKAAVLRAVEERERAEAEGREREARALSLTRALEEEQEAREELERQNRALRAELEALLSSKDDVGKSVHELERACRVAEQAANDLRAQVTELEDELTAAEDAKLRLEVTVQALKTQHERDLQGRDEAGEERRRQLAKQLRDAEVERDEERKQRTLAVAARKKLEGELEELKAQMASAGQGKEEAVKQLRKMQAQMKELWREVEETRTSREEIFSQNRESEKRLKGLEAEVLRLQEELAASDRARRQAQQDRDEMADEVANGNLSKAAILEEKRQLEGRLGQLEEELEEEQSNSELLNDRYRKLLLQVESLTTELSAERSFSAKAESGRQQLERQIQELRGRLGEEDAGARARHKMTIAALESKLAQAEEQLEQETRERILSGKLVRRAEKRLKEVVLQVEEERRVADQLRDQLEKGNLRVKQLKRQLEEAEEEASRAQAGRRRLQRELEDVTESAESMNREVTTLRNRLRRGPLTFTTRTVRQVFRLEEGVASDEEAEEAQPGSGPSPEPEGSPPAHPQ
Cyclin-dependent kinase 4, sequence (P11802 whole entry, canonical isoform): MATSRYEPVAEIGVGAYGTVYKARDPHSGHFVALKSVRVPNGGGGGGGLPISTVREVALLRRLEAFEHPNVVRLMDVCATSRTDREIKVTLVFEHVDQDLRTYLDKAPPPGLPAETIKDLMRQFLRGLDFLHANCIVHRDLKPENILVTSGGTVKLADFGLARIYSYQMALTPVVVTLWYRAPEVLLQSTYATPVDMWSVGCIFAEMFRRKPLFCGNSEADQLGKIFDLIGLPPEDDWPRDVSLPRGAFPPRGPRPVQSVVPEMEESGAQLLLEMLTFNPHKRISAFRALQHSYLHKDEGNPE

What is called Kd is the constant that tells how readily two partners part at equilibrium. Take `Cn1cc(-c2ccc(F)c(C(F)(F)F)c2)nc1C1CCN(c2ncnc3[nH]ncc23)CC1` [LY-2584702]: the Kd (in test [1]; in test [2]; on Ephrin type-B receptor 4; on Heme oxygenase 2; in test [3]; at Myosin-14) was > 30 µM (inactive) each time. Also, the Kd (at Pyridoxal kinase; in test [4]) was > 30 µM (inactive) throughout.
Consider `O=C(Nc1ccc(-c2ccnc(Nc3ccc(N4CCOCC4)cc3)n2)cc1)C1CCCN1` (centres undefined) [XL-019], for which the Kd (in test [1]; in test [2]; at Ephrin type-B receptor 4; on Heme oxygenase 2; in test [3]; at Myosin-14) was > 30 µM (inactive) each time. Also, the Kd (at Pyridoxal kinase; in test [4]) was > 30 µM (inactive) in each case.
For `CNC(=O)CN1CCC(Oc2cc3c(Nc4cccc(Cl)c4F)ncnc3cc2OC)CC1` [SAPITINIB], the Kd in test [1] was > 30 µM (inactive); in test [2], > 30 µM (inactive); at Ephrin type-B receptor 4, 0.556 µM (active); at Heme oxygenase 2, > 30 µM (inactive); in test [3] it was > 30 µM (inactive); at Myosin-14 it was > 30 µM (inactive). Also, the Kd (on Pyridoxal kinase; in test [4]) was > 30 µM (inactive) each time.
With `CCN1CCN(Cc2ccc(-c3cc4c(N[C@H](C)c5ccccc5)ncnc4[nH]3)cc2)CC1` [AEE-788], the Kd was > 30 µM (inactive) in test [1]; > 30 µM (inactive) in test [2]; 26.4 µM (active) on Ephrin type-B receptor 4; > 30 µM (inactive) at Heme oxygenase 2; > 30 µM (inactive) in test [3]; > 30 µM (inactive) on Myosin-14. The Kd (at Pyridoxal kinase; in test [4]) was > 30 µM (inactive) throughout.
For `CN1N=C(N)c2cn([C@@H]3O[C@H](COP(=O)(O)O)[C@@H](O)[C@H]3O)c3ncnc1c23` [TRICIRIBINE PHOSPHATE], the Kd (in test [1]; in test [2]; on Ephrin type-B receptor 4; on Heme oxygenase 2; in test [3]; on Myosin-14) was > 30 µM (inactive) in each case. For the same compound, the Kd (at Pyridoxal kinase; in test [4]) was > 30 µM (inactive) in each case.
Take `CC(=O)Nc1cccc(-n2c(=O)n(C3CC3)c(=O)c3c(Nc4ccc(I)cc4F)n(C)c(=O)c(C)c32)c1` [TRAMETINIB]: the Kd (in test [1]; in test [2]; on Ephrin type-B receptor 4; on Heme oxygenase 2; in test [3]; on Myosin-14) was > 30 µM (inactive) throughout. For the same compound, the Kd (on Pyridoxal kinase; in test [4]) was > 30 µM (inactive) throughout.
For `COCCNCc1ccc(-c2cc3nccc(Oc4ccc(NC(=S)NC(=O)Cc5ccc(F)cc5)cc4F)c3s2)nc1` [GLESATINIB], the Kd (in test [1]; in test [2]; on Ephrin type-B receptor 4; on Heme oxygenase 2; in test [3]; at Myosin-14) was > 30 µM (inactive) in each case. Moreover, the Kd (on Pyridoxal kinase; in test [4]) was > 30 µM (inactive) throughout.
Turning to `CNS(=O)(=O)Nc1nccc(Cc2c(C)c3ccc(Oc4ncccn4)cc3oc2=O)c1F` [AVUTOMETINIB], the Kd (in test [1]; in test [2]; at Ephrin type-B receptor 4; on Heme oxygenase 2; in test [3]; on Myosin-14) was > 30 µM (inactive) each time. Besides, the Kd (at Pyridoxal kinase; in test [4]) was > 30 µM (inactive) throughout.
